Measured values taken from publication PMC3282623, “High-pressure-induced water penetration into 3-isopropylmalate dehydrogenase” (Acta Crystallographica Section D: Biological Crystallography, 2012).

Target: T1, SoIPMDH (3-isopropylmalate dehydrogenase from Shewanella oneidensis MR-1) (Shewanella oneidensis, UniProt Q8E9N3)
T1 construct: gene leuB; N-terminally His6-tagged (pQE-80L, BamHI/HindIII), expressed in E. coli BL21-CodonPlus(DE3)-RIL; tag removal not mentioned; homodimer
Assay: X-ray crystallography of the complex
Type: binding
Conditions: active site, closed dimer; calcium in active site; 10 mM IPM, 10 mM MgCl2, 200 mM calcium acetate, pH 7.0, room temperature, 0.1 MPa (also 160-650 MPa: 3vl2, 3vl3, 3vl4, 3vl6, 3vl7)

T1 sequence (Q8E9N3 2-364): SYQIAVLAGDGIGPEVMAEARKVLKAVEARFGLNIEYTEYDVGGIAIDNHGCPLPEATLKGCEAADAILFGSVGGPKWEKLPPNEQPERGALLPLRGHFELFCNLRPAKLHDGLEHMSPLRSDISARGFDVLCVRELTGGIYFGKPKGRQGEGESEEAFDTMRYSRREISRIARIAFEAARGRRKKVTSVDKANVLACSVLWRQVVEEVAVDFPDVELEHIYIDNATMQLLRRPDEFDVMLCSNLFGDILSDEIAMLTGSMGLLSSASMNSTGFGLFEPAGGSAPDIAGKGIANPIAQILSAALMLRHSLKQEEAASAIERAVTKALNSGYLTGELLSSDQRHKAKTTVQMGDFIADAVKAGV

## CC(C)[C@H](C(=O)O)[C@@H](O)C(=O)O [3-isopropylmalate]
  X-ray crystallography of the complex: the SoIPMDH dimer was crystallized in complex with its substrate, the IPM molecule
